Experimental data as given in patent US20150218599A1, “METHODS FOR PRODUCTION OF ALCOHOLS FROM CARBOXYLIC ACIDS VIA FERMENTATION” (Cornell University, priority 2012, published 2015).

What was measured:
C. ljungdahlii ERI-2 [1] = experiment: Carboxylic acid reduction in batch cultures with constant syngas supply; assay type: cell-based, Clostridium ljungdahlii; details: 15 mM carboxylic acid; for max. opt. density at 600 nm: triplicate
Method: (§1) All chemicals were purchased from Sigma-Aldrich, St. Louis, Mo., unless stated otherwise. Bacterial strain and growth conditions. Most experiments were conducted with C. ljungdahlii ERI-2 (ATTC 55380), which has been used successfully for syngas to ethanol fermentation. Some experiments were repeated with C. ragsdalei P11 (ATTC BAA-622). Bacteria were grown anaerobically at 35° C. in medium designed for efficient syngas fermentation. This medium is mostly based on ATCC medium 1754 but contains higher concentrations of the macronutrient elements. The yeast extract concentration was 0.5 g/L or 0.0 g/L as indicated for each experiment; the concentration of MES (2-(N-morpholino)ethanesulfonic acid) was 150 mM; carboxylic acids (propionic, n-butyric, isobutyric, n-valeric or n-caproic acid) were added to final concentrations of 15 mM before adjustment of the pH to 5.5. The syngas atmosphere was a synthetic blend of 60% [vol/vol]carbon monoxide, 35% hydrogen, and 5% carbon dioxide (Airgas East, Ithaca, N.Y.). Precultures of C. ljungdahlii or C. ragsdalei were grown in 250 ml serum bottles containing 20 ml medium with 0.5 g/L or 0.0 g/L yeast extract (the latter for inoculation of experiments with no yeast extract) and syngas in the headspace at a pressure of 28 psi with finite amounts of syngas. Precultures were maintained in an active state by weekly transfer of 2% into a fresh serum bottle with a headspace of finite syngas.
Experimental setup. The experiments to determine the ability of C. ljungdahlii to reduce propionic acid, n-butyric acid, n-valeric acid, n-caproic acid, or isobutyric acid (2-methyl propionic acid) to the corresponding alcohols were performed in triplicate in 250 ml rubber-stoppered Pyrex glass bottles (Fisher Scientific, Pittsburgh, Pa.), which were used as batch systems in regards to the growth medium, but with constant syngas supply (FIG. 1A). Three stainless steel needles of different length (21 gauge, Becton Dickinson Franklin Lakes, N.J., and ColeParmer, Vernon Hills, Ill.) were punched through each rubber stopper as gas supply, vent, and sample ports. The reactors were filled with 220 mL medium containing 0.5 g/L yeast extract and one of each carboxylic acids at a concentration of 15 mM, autoclaved, and then equipped with fermentation airlocks (www.winemakingsuperstore.com) filled with 5% sulfuric acid to prevent contamination by other microbes or oxygen, and placed in a temperature-controlled recirculating water bath for mechanical agitation using a 15 multi-position IKA magnetic stirrer (Cole-Parmer Vernon Hills, Ill. 60061 USA). Artificial syngas was constantly supplied to up to 12 reactors at a time, at a flow rate of 5 mL/min to each reactor with a gassing station with multiple outlets and low-flow brass needle valves (McMaster-Carr, Aurora, Ohio), sterile Masterflex viton tubing (Cole Parmer, Vernon Hills, Ill.), 0.22-μm sterile filters (Fisher Scientific), and sterile needles through the rubber stopper (size 6.5, VWR, Radnor, Pa.) connected to gas diffusion stones (Fisher Scientific). All reactors were inoculated with 2% exponentially growing pre-cultures. The fermentation was operated for ca. 400 h.
(§2) Analytical procedures. Cell dry weight concentration in the cultures was determined through measurement of the optical density with a Milton Roy Spectronic 1201 spectrophotometer at a wavelength of 600 nm after determining a correlation coefficient of 242 mg dry weight/(L*OD600nm). The carbon content was calculated using the universal proportion of elements in microbial biomass (C5H7O2N). A gas chromatography system (HP 5890, Hewlett Packard, Palo Alto, Calif.), which was equipped with a 7673 autoinjector and flame ionization detector, was used for the quantification of carboxylic acids and alcohols. GC columns were purchased from Sigma-Aldrich, Inc., St. Louis, Mo. The flow rates of hydrogen, air, and helium were 35, 380, and 30 mL/min. […]

C. ragsdalei P11 = experiment: as above; assay type: cell-based, Clostridium ragsdalei; details: 15 mM carboxylic acid; for max. opt. density at 600 nm: triplicate
Method: as §1
Experimental setup. The experiments to determine the ability of C. ljungdahlii to reduce propionic acid, n-butyric acid, n-valeric acid, n-caproic acid, or isobutyric acid (2-methyl propionic acid) to the corresponding alcohols were performed in triplicate in 250 ml rubber-stoppered Pyrex glass bottles (Fisher Scientific, Pittsburgh, Pa.), which were used as batch systems in regards to the growth medium, but with constant syngas supply (FIG. 1A). Three stainless steel needles of different length (21 gauge, Becton Dickinson Franklin Lakes, N.J., and ColeParmer, Vernon Hills, Ill.) were punched through each rubber stopper as gas supply, vent, and sample ports. […]
as §2, with “alcohols.” for “alcohols. GC columns were purchased from Sigma-Aldrich, Inc., St. Louis, Mo. The flow rates of hydrogen, air, and helium were 35, 380, and 30 mL/min.”

C. ljungdahlii ERI-2 [2] = experiment: Batch syngas fermentation in 1 L bottles with a finite amount of syngas (stoichiometry); assay type: cell-based, Clostridium ljungdahlii; details: 15 mM n-butyric acid, 25 to 115 h
Method: The stoichiometry of substrates and products of syngas fermentation with 0 mM n-butyric acid and 15 mM n-butyric acid was determined in 1 L rubber-stoppered Pyrex glass bottles filled with […] medium without yeast extract and 1051.6 ml syngas headspace at a pressure of 28 psi. […] Here, yeast extract was omitted from the growth medium to minimize the interference of organic compounds (amino acids) in the fermentation. Two needles, each connected to a three-way valve, were used to take gas or liquid samples from the reactor. Gas pressure was measured using gauge pressure transducers (Model PX26, Omega Engineering, Inc., Stamford, Conn.) attached to hypodermic needles inserted through a rubber septum on the three-way valve of the sampling port. […] Cell density (OD600nm), pH, headspace gas pressure, concentrations of carbon monoxide, hydrogen, and carbon dioxide in the headspace, and concentrations of carboxylic acids and solvents in the culture medium were monitored daily. […]
Analytical procedures. Cell dry weight concentration in the cultures was determined through measurement of the optical density with a Milton Roy Spectronic 1201 spectrophotometer at a wavelength of 600 nm after determining a correlation coefficient of 242 mg dry weight/(L*OD600nm). The carbon content was calculated using the universal proportion of elements in microbial biomass (C5H7O2N). […]

Row | Structure (SMILES) | growth rate (C. ljungdahlii ERI-2 [1]) [h⁻¹] | max. opt. density at 600 nm (C. ljungdahlii ERI-2 [1]) | growth rate (C. ragsdalei P11) [h⁻¹] | max. opt. density at 600 nm (C. ragsdalei P11) | cell mass DW (C. ljungdahlii ERI-2 [2]) [mg] | maximum OD600 (C. ljungdahlii ERI-2 [2])
1 | CC(C)C(=O)O [isobutyric acid] | 0.077 ± 0.008 | 2.50 ± 0.31 | – | – | – | –
2 | CCCCC(=O)O [n-valeric acid] | 0.077 ± 0.007 | 2.01 ± 0.04 | – | – | – | –
3 | CCCCCC(=O)O [n-caproic acid] | 0.049 ± 0.003 | 1.47 ± 0.17 | – | – | – | –
4 | CCC(=O)O [propionic acid] | 0.084 ± 0.012 | 2.69 ± 0.19 | 0.093 ± 0.024 | 0.53 ± 0.14 | – | –
5 | CCCC(=O)O [n-butyric acid] | 0.094 ± 0.004 | 2.71 ± 0.39 | 0.120 ± 0.004 | 0.98 ± 0.05 | 16.65 ± 2.99 | 1.34 ± 0.21
